PMC4217095 (Emerging Microbes & Infections, 2014)

Target: MDk/W452(H5N8) NA (Influenza A virus, UniProt A0A088CBR8)
Format: biochemical

Structure (SMILES) | Sensitivity of virus to NA inhibitor (assessment of the IC50)
CC(=O)N[C@H]1[C@H]([C@H](O)[C@H](O)CO)OC(C(=O)O)=C[C@@H]1N=C(N)N [Zanamivir, zanamivir] | sensitive
CCC(CC)[C@H](NC(C)=O)[C@@H]1[C@H](O)[C@@H](C(=O)O)C[C@H]1N=C(N)N [Peramivir, peramivir] | sensitive
